We go through 21 compounds from patent EP1322622B1, “NEW N, N'-DISUBSTITUTED BENZIMIDAZOLONE DERIVATIVES WITH AFFINITY AT THE SEROTONIN AND DOPAMINE RECEPTORS” (Sprout Pharmaceuticals, Inc., priority 2000, dated 2002).

SMILES strings stand for the structures.

Test [1] has as its target T1, 5-HT1A human receptors (Homo sapiens, UniProt P08908).
T1 construct: expressed in transfected cells; host or cells: CHO cells
T1 sequence (P08908 1-422): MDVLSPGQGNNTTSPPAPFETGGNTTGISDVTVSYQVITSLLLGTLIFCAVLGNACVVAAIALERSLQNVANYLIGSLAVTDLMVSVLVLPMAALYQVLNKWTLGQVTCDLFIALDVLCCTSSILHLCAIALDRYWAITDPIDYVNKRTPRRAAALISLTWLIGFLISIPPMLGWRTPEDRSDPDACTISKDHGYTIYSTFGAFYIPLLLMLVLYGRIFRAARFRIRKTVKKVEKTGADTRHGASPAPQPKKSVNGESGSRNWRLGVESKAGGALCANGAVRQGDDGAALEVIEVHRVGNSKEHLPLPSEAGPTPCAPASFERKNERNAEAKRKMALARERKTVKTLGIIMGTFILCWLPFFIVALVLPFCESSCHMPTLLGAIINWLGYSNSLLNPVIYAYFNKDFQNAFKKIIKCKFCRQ
Briefly: 5-HT1A Radioligand Receptor Binding Assay ([3H]-8-OH-DPAT, CHO cell membranes). The note with it: compound at 10^-7 M, singlicate; [3H]-8-OH-DPAT 0.6-0.7 nM; read-out: 5-HT1A receptor binding assay % inhib. (10^-7 M). How it is done: Membranes from CHO cells, expressing 5-HT1A human receptors were suspended in incubation buffer.
The compounds were tested in singlicate at one concentration (10^-7 M) in a total volume of 1000 µl. 980 µl of diluted membranes, 10 µl DMSO or unlabelled ligand and 10 µl of [^3H]-8-OH-DPAT (0.6-0.7 nM) were incubated for 60 min at 27 °C. The reaction was stopped by rapid filtration through Tomtec cell Harvester (48 wells) using Filtermat B (presoaked in 0.1% PEI) filters. […] Non specific binding was determined in the presence of 5-HT (10^-5 M).
(§1) The specific radioligand binding to the receptor was defined by the difference between total binding and non specific binding, determined in the presence of an excess of unlabelled ligand. Results were expressed as percentage of control specific binding obtained in the presence of the compounds.
The affinity values (IC50) for the compounds were obtained by a non linear least squares regression analysis on the basis of a one binding site model.

Test [2] addresses T2, D4 human receptors (Homo sapiens, UniProt P21917).
T2 construct: expressed in transfected cells; host or cells: CHO cells
T2 sequence (P21917 1-419): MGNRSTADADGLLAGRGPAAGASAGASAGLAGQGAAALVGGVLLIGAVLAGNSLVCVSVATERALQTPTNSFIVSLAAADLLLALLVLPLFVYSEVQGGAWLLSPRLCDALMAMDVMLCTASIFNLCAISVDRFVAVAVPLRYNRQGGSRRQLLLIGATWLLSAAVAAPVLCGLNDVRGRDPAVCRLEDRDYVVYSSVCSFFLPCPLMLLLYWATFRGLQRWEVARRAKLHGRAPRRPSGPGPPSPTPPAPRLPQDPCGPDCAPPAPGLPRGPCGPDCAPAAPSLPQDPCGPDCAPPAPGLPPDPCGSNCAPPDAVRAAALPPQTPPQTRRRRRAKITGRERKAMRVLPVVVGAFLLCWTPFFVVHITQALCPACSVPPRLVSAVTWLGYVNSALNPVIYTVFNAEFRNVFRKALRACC
Briefly: D4 Radioligand Receptor Binding Assay ([3H] YM-09151-2, CHO cell membranes). The note with it: compound at 10^-7 M, singlicate; [3H] YM-09151-2 0.15-0.25 nM; read-out: D4 receptor binding assay % inhib. (10^-7 M). Here is the method:
Membranes from CHO cells, expressing D4 human receptors were suspended in incubation buffer.
Binding assays were performed in MultiProbe 204 pipetting system (Packard), according to a predetermined mapping, consistent with the software Screen. The compounds were tested in singlicate at one concentration (10^-7 M) in a total volume of 1000 µl (980 µl of diluted membranes, 10 µl DMSO or unlabelled ligand and 10 µl of [^3H] YM-09151-2 (0.15-0.25 nM). After incubation for 120 min at 27 °C, the reaction was stopped by rapid filtration through Tomtec cell Harvester (48 wells) using Filtermat B (presoaked in 0.1% PEI) filters. Filters were washed with ice-cold 50 mM Tris-HCl (pH 7.4) buffer (9 x 700 µl), dryed, covered with MeltiLex B/HS (Wallac) scintillator sheets and heated in oven at 80-90 °C for about 10 min, transferred into plastic sample bags (Wallac), sealed and put into 1024 Beta Plate scintillation counter (Wallac). Non specific binding was determined in the presence of clozapine dissolved in DMSO to a final concentration of 10^-5 M.
as §1

For the compound `O=c1n(CCO)c2ccccc2n1CCCCN1CCN(c2ccccn2)CC1` [compound 59], the inhibition at 0.1 µM in test [1] worked out at 75%; in test [2], 51%.

For `O=c1n(CCO)c2ccccc2n1CCCCN1CCc2c([nH]c3ccccc23)C1` [compound 62], the results for the inhibition at 0.1 µM in test [1] and in test [2] were 73% and 96%, respectively.

As for `O=c1n(CCO)c2ccccc2n1CCCCN1CC=C(c2ccccc2)CC1` [compound 65], the inhibition at 0.1 µM in test [1] is 52%; in test [2] it was 74%.

In the case of `O=c1n(CCO)c2ccccc2n1CCCCN1CCN(c2ccc(Cl)c(Cl)c2)CC1` [compound 66], the inhibition at 0.1 µM was found to be 65% in test [1] and 99% in test [2].

For the compound `COc1ccccc1N1CCN(CCCCn2c(=O)n(CCO)c3ccccc32)CC1` [compound 74], the values for the inhibition at 0.1 µM in test [1] and in test [2] were 92% and 62%, respectively.

As to `CCNC(=O)OCCn1c(=O)n(CCCCN2CCN(c3ccccc3)CC2)c2ccccc21` [compound 75], the inhibition at 0.1 µM was determined as 67% in test [1] and 54% in test [2].

Consider `O=c1n(CCN2CCCCC2)c2ccccc2n1CCN1CCN(c2cccc(C(F)(F)F)c2)CC1` [compound 149], for which the values for the inhibition at 0.1 µM in test [1] and in test [2] were 88% and 35%, respectively.

Take `O=c1n(CCN2CC=C(c3ccccc3)CC2)c2ccccc2n1CCN1CCCCC1` [compound 150]: the figures for the inhibition at 0.1 µM in test [1] and in test [2] were 57% and 52%, respectively.

Turning to `COc1ccccc1N1CCN(CCn2c(=O)n(CCN3CCCCC3)c3ccccc32)CC1` [compound 159], the figures for the inhibition at 0.1 µM in test [1] and in test [2] were 85% and 50%, respectively.

Regarding `CCNC(=O)OCCn1c(=O)n(CCN2CCN(c3ccccc3OC)CC2)c2ccccc21` [compound 216], the results for the inhibition at 0.1 µM in test [1] and in test [2] were 92% and 44%, respectively.

As for `O=c1n(CCN2CCOCC2)c2ccccc2n1CCN1CCN(c2cccc(Cl)c2)CC1` [compound 224], the figures for the inhibition at 0.1 µM in test [1] and in test [2] were 98% and 51%, respectively.

On to `O=c1n(CCN2CC=C(c3ccccc3)CC2)c2ccccc2n1CCN1CCOCC1` [compound 229], for which the figures for the inhibition at 0.1 µM in test [1] and in test [2] were 67% and 34%, respectively.

In the case of `CS(=O)(=O)NCCn1c(=O)n(CCN2CCN(c3cccc(Cl)c3)CC2)c2ccccc21` [compound 241], the inhibition at 0.1 µM stood at 69% in test [1] and 32% in test [2].

For the compound `COc1ccccc1N1CCN(CCn2c(=O)n(CCNS(C)(=O)=O)c3ccccc32)CC1` [compound 255], the inhibition at 0.1 µM in test [1] was determined as 58%; in test [2], 33%.

`Cc1cccc(N2CCN(CCn3c(=O)n(CCNS(C)(=O)=O)c4ccccc43)CC2)c1` [compound 256]: the figures for the inhibition at 0.1 µM in test [1] and in test [2] were 59% and 51%, respectively.

Take `O=c1n(CC=CCN2CCc3c([nH]c4ccccc34)C2)c2ccccc2n1CCN1CCOCC1` [compound 265]: the inhibition at 0.1 µM in test [1] was 55%; in test [2] it was 78%.

On to `COCCn1c(=O)n(CC=CCN2CCN(c3cccc(Cl)c3)CC2)c2ccccc21` [compound 280], for which the results for the inhibition at 0.1 µM in test [1] and in test [2] were 93% and 38%, respectively.

As for `COCCn1c(=O)n(C/C=C\CN2CCN(c3ccc(Cl)c(Cl)c3)CC2)c2ccccc21` [compound 286], the values for the inhibition at 0.1 µM in test [1] and in test [2] were 65% and 87%, respectively.

As to `COCCn1c(=O)n(C/C=C/CN2CCN(c3ccccc3)CC2)c2ccccc21` [compound 293], the inhibition at 0.1 µM in test [1] was 89%; in test [2] it was 32%.

`COCCn1c(=O)n(C/C=C/CN2CCN(c3ccc(Cl)c(Cl)c3)CC2)c2ccccc21` [compound 303]: the inhibition at 0.1 µM was 71% in test [1] and 70% in test [2].

On to `O=c1n(C/C=C\CN2CCN(C(c3ccccc3)c3ccc(Cl)cc3)CC2)c2ccccc2n1CCN1CCCCC1` (stereo not drawn) [compound 311], for which the inhibition at 0.1 µM in test [1] was 59%; in test [2], 60%.
